Several values for one entry are separate records, joined by “and”; a condition that tells them apart may be missing. Equal values may be shown once.
Assays:
[1] = tested on: BP-II patients; test: Symptom severity (HDRS, YMRS) in 12-week randomized double-blind placebo-controlled add-on trial; format: in vivo, human; settings: for Within group change (baseline minus endpoint) HDRS, Mean ± SD / Within group change (baseline minus endpoint) YMRS, Mean ± SD: BP-II patients, add-on to valproic acid, 12-week follow-up; for HDRS, difference versus placebo, B (standardized coefficient) / YMRS, difference versus placebo, B (standardized coefficient): GEE, treatment group x treatment duration interaction, placebo as reference, controlling for age, gender, treatment duration
Text: (§1) 250˜300 male and female BP-II patients (18˜65 years old) were recruited, from the Department of Psychiatry at National Cheng Kung University Hospital and Tri-Service General Hospital into a 12-week treatment. The research protocol was examined for approval by the Institutional Review Board for the Protection of Human Subjects at National Cheng Kung University Hospital and Tri-Service General Hospital. All participants were given a complete description of the study and were asked to sign an informed consent before the study began. Patients who had major, mental illnesses other than BP-II and who had taken memantine or DM within 1 week before the first dose of the double-blind medication were excluded. The Chinese Version of Modified Schedule of Affective Disorder and Schizophrenia-Life Time (SADS-L) will be conducted for confirmation of the diagnosis. […] After each patient had been diagnosed based on DSM-IV criteria by a senior psychiatrist and confirmed by a clinical psychologist using a structured interview, SADS-L, the severity of each patient's clinical symptoms was assessed using the 17-item Hamilton Rating Scale for Depression (HRSD) and the Young Mania Rating Scale (YMRS). All the patients at Screen who score 18 on the HRSD or 14 on the YMRS were recruited. Eligible patients were randomly assigned into four treatment groups (n=40-45 for each group) in a double-blind manner and all groups matched in demographic characteristics, symptom severity, while they received open-label valproic acid (VPA) treatment (500 mg and 1000 mg daily [[…] in plasma]): 1) DM (30 mg/day), 2) memantine (5 mg/day), 3) combination of DM and memantine (30 mg/day DM and 5 mg/day memantine), and 4) placebo respectively for 12 weeks. Patients were randomized into 4 groups through a computer-generated randomization table to receive placebo or any of active treatments in a 1:1:1:1 ratio. The patients with side-effect intolerance or clinical worsening were withdrawn earlier.
Efficacy will be assessed by the YMRS, HDRS and Side-Effects.
Clinical ratings were performed by research psychiatric professionals who were well-trained and experienced in the rating scales. All assessments were blind to treatment assignment and completed at baseline and at the end of week 1, 2, 4, 8 and 12. Routine laboratory tests, including CBC and biochemistry were checked at baseline and the end of week 12.
(2) Young Mania Rating Scale (YMRS) and 17-item Hamilton Depression Rating Scale (HDRS)
Those clinically suspected of having a mood disorder were invited to be interviewed with the Chinese version SADS-L and diagnosed as having BP-II. The severity of current symptoms was assessed by using the YMRS and HDRS. The diagnosis of a mood disorder was made according to DSM-IV criteria, except for BP-II, for which we used a 2-day instead of a 4-day duration for hypomania.
(§2) The intent to-treat (ITT) analysis set included all randomized patients who received at least one dose of study drug, and had one baseline assessment and at least one after baseline. All the outcome variables were analyzed in the ITT set, including HDRS, YMRS, cytokine levels, plasma BDNF levels and metabolic parameters; missing data was filled in using the last observation carried forward (LOCF) method.
(§3) The overall within-group changes of each outcome over the 12 weeks were analyzed by paired sample t-test. To compare the difference in outcomes of add-on medication (DM30, MM5, and DM30+MM5) versus placebo, generalized estimating equation (GEE) was adopted. A total of 10 models ran with each outcome as a dependent variable. In each model, add-on medication received (DM30, MM5, and DM30+MM5 vs. controls), treatment duration, treatment received X treatment duration, gender, and age were included as independent variables. The covariance structure employed was autoregressive (AR(1)) model. The placebo group was used as reference group. […]

[2] = Example 2: 4-week clinical trial of dextromethorphan added on to depakine, cholesterol and LDL; format: in vivo, human; settings: 30 mg/day added on to depakine
Procedure: This example was a clinical trial for the treatment of bipolar II disorder using 30 mg/day of dextromethorphan (off label use) adding on to depakine (plasma level […]). 44 patients with bipolar II disorder were recruited, and change of cholesterol was monitored only over 4 weeks.

[3] = tested on: BDNF; test: Plasma BDNF by ELISA in 12-week add-on trial; format: in vivo, human; settings: for Within group change (baseline minus endpoint) BDNF, Mean ± SD: BP-II patients, plasma, add-on to valproic acid, 12-week follow-up; for BDNF, difference versus placebo, B (standardized coefficient): GEE interaction term, placebo as reference, controlling for age, gender, treatment duration, HDRS and YMRS
Text: as §1
Serum levels of DM, memantine, plasma BDNF, and cytokines were measured. […] of whole blood was drawn and collected from the antecubital vein. Plasma were isolated from the whole blood after the 3000 g centrifugation at 4° C. for 15 min and stored at −80° C. immediately. Plasma BDNF, CRP, TNF-α, were measured at baseline, 1, 2, 4, 8 and 12 weeks and quantified using the enzyme-linked immunosorbent assays (ELISAs). Cytokine levels were quantified using an antibody pair assay system (Flexia; BioSource Intl., Camarillo, Calif.). Sample processing and data analysis were done according to the manufacturer's instructions. The low limit sensitivity was 0.126 pg/ml, 0.057 pg/ml, and 20 pg/ml for TNF-α, IL-1β, and BDNF respectively. Finally, HPLC with UV detector and therapeutic drug monitoring (TDM) was used to measure the plasma DM and VPA level respectively.
Symptom severity, immunological parameters (plasma tumor necrosis factor α (TNF-α) and C-reactive protein (CRP)) and plasma brain derived neurotrophic factor (BDNF) were examined regularly. Metabolic profiles (cholesterol, triglyceride, HbA1C, fasting serum glucose, body mass index [BMI]) were measured at baseline and 2, 8, and 12 weeks. Concomitant benzodiazepine medication (lorazepam <8 mg) was used for nighttime sedation, and to treat agitation and insomnia during the study. […]
(§4) The overall within-group changes of each outcome over the 12 weeks were analyzed by paired sample t-test. […]

[4] = cited from earlier work
[5] = Metabolic profiles (cholesterol, HDL-C, LDL-C, triglyceride, glucose) in 12-week add-on trial; format: in vivo, human; settings: for Within group change (baseline minus endpoint) Glucose, Mean ± SD / Within group change (baseline minus endpoint) HDL-C, Mean ± SD / Within group change (baseline minus endpoint) LDL-C, Mean ± SD / Within group change (baseline minus endpoint) Total cholesterol, Mean ± SD / Within group change (baseline minus endpoint) Triglyceride, Mean ± SD: BP-II patients, add-on to valproic acid, 12-week follow-up; for Glucose, difference versus placebo, B (standardized coefficient) / HDL-C, difference versus placebo, B (standardized coefficient) / LDL-C, difference versus placebo, B (standardized coefficient) / Total Cholesterol, difference versus placebo, B (standardized coefficient) / Triglyceride, difference versus placebo, B (standardized coefficient): GEE interaction term, placebo as reference, controlling for age, gender, treatment duration, HDRS and YMRS
Text: as §1
Symptom severity, immunological parameters (plasma tumor necrosis factor α (TNF-α) and C-reactive protein (CRP)) and plasma brain derived neurotrophic factor (BDNF) were examined regularly. Metabolic profiles (cholesterol, triglyceride, HbA1C, fasting serum glucose, body mass index [BMI]) were measured at baseline and 2, 8, and 12 weeks. Concomitant benzodiazepine medication (lorazepam <8 mg) was used for nighttime sedation, and to treat agitation and insomnia during the study. Up to 20 mg/daily of fluoxetine was permitted for associated depressive symptoms.
as §2
as §3, with “group. The interaction term of treatment received X treatment duration was regarded as effect of add-on DM30, MM5, and DM30+MM5. To analyze correlations between cytokines, BDNF and metabolic profiles, GEE analysis was used as well.” for “group.”

[6] = tested on: CRP; test: Plasma CRP by ELISA in 12-week add-on trial; format: in vivo, human; settings: for Within group change (baseline minus endpoint) CRP, Mean ± SD: BP-II patients, plasma, add-on to valproic acid, 12-week follow-up; for CRP, difference versus placebo, B (standardized coefficient): GEE interaction term, placebo as reference, controlling for age, gender, treatment duration, HDRS and YMRS
[7] = tested on: TNF-α; test: Plasma TNF-α by ELISA in 12-week add-on trial; format: in vivo, human; settings: for Within group change (baseline minus endpoint) TNF-α, Mean ± SD: BP-II patients, plasma, add-on to valproic acid, 12-week follow-up; for TNF-α, difference versus placebo, B (standardized coefficient): GEE interaction term, placebo as reference, controlling for age, gender, treatment duration, HDRS and YMRS
Text: as §1
Serum levels of DM, memantine, plasma BDNF, and cytokines were measured. […] Plasma BDNF, CRP, TNF-α, were measured at baseline, 1, 2, 4, 8 and 12 weeks and quantified using the enzyme-linked immunosorbent assays (ELISAs). Cytokine levels were quantified using an antibody pair assay system (Flexia; BioSource Intl., Camarillo, Calif.). […]
Symptom severity, immunological parameters (plasma tumor necrosis factor α (TNF-α) and C-reactive protein (CRP)) and plasma brain derived neurotrophic factor (BDNF) were examined regularly. Metabolic profiles (cholesterol, triglyceride, HbA1C, fasting serum glucose, body mass index [BMI]) were measured at baseline and 2, 8, and 12 weeks. […]
as §4

[8] = tested on: opioid addictive behavior; settings: rat, 0.2 mg/kg (1/100 dosage); cited from earlier work
[9] = tested on: BP-II patients; test: Side effects / discontinuation in 12-week add-on trial; format: in vivo, human; settings: 12-week trial, n=66 in group
Text: 250˜300 male and female BP-II patients (18˜65 years old) were recruited, from the Department of Psychiatry at National Cheng Kung University Hospital and Tri-Service General Hospital into a 12-week treatment. The research protocol was examined for approval by the Institutional Review Board for the Protection of Human Subjects at National Cheng Kung University Hospital and Tri-Service General Hospital. All participants were given a complete description of the study and were asked to sign an informed consent before the study began. Patients who had major, mental illnesses other than BP-II and who had taken memantine or DM within 1 week before the first dose of the double-blind medication were excluded. […] After each patient had been diagnosed based on DSM-IV criteria by a senior psychiatrist and confirmed by a clinical psychologist using a structured interview, SADS-L, the severity of each patient's clinical symptoms was assessed using the 17-item Hamilton Rating Scale for Depression (HRSD) and the Young Mania Rating Scale (YMRS). […]
The severity of side effects was evaluated by using the Chinese version of Side-Effects Checklist which derived from Psychiatric Rating and Diagnostic Instruments (TRIMS, 1972) and included 7 categories as follows: 1) Mental Status; 2) Genito-Urinary; 3) Cardiovascular; 4) Head-Neck; 5) Extremities; 6) Skin; 7) Gastrointestinal. […]

SMILES | Within group change (baseline minus endpoint) HDRS, Mean ± SD [1] | Within group change (baseline minus endpoint) YMRS, Mean ± SD [1] | HDRS, difference versus placebo, B (standardized coefficient) [1] | YMRS, difference versus placebo, B (standardized coefficient) [1] | Within group change (baseline minus endpoint) BDNF, Mean ± SD [3] [ng/mL] | BDNF, difference versus placebo, B (standardized coefficient) [3] | Within group change (baseline minus endpoint) Glucose, Mean ± SD [5] [mg/dL] | Within group change (baseline minus endpoint) HDL-C, Mean ± SD [5] [mg/dL] | Within group change (baseline minus endpoint) LDL-C, Mean ± SD [5] [mg/dL] | Within group change (baseline minus endpoint) Total cholesterol, Mean ± SD [5] [mg/dL] | Within group change (baseline minus endpoint) Triglyceride, Mean ± SD [5] [mg/dL] | Glucose, difference versus placebo, B (standardized coefficient) [5] | HDL-C, difference versus placebo, B (standardized coefficient) [5] | LDL-C, difference versus placebo, B (standardized coefficient) [5] | Total Cholesterol, difference versus placebo, B (standardized coefficient) [5] | Triglyceride, difference versus placebo, B (standardized coefficient) [5] | Within group change (baseline minus endpoint) CRP, Mean ± SD [6] [ng/mL] | CRP, difference versus placebo, B (standardized coefficient) [6] | Within group change (baseline minus endpoint) TNF-α, Mean ± SD [7] [pg/mL] | TNF-α, difference versus placebo, B (standardized coefficient) [7] | further results
COc1ccc2c(c1)[C@]13CCCC[C@@H]1[C@H](C2)N(C)CC3 [DM30, dextromethorphan] | 6.4 ± 4.7 | 4.7 ± 3.4 | −1.38 | −1.00 | -2.3 ± 8.3 | 2.94 | 9.0 ± 38.1 | 1.6 ± 10.2 | -0.9 ± 23.1 | -0.1 ± 28.7 | -11.6 ± 168.4 | −5.33 | 0.79 | 8.80 | 6.95 | 28.08 | 10.9 ± 1290.3 | 0.05 | 0.1 ± 2.5 | −0.04 | cholesterol and LDL in human, in words ([2]; 4 weeks): decreased; low density lipid protein (LDL), first value (before treatment) ([2]; 44 bipolar II patients): 127.70 ± 34.24 mg/dL; total cholesterol, first value (before treatment) ([2]; 44 bipolar II patients): 194.70 ± 39.49 mg/dL; total cholesterol over 4-week of treatment, second value ([2]; 44 bipolar II patients, P=0.09): 186.16 ± 37.95 mg/dL; low density lipid protein (LDL) over 4-week of treatment, second value ([2]; 44 bipolar II patients, P=0.13): 120.84 ± 34.013 mg/dL; BDNF level, within group change, in words ([3]; after 12 weeks of treatment): Significant improved; plasma levels of DM ([4]; BP patients, U.S. Pat. No. 8,785,472): 5 to 100 ng/mL; plasma DM concentrations ([4]; patients taking 30-60 mg/70 kg of DM, listed as DM): 10-30 ng/ml and 28-84 nM
CC12CC3CC(C)(C1)CC(N)(C3)C2 [MM5, memantine] | 6.3 ± 4.9 | 4.6 ± 3.9 | −1.33 | −0.98 | 0.3 ± 7.6 | 0.02 | -3.3 ± 22.6 | 2.4 ± 8.7 | 2.6 ± 22.0 | 0.5 ± 24.5 | -10.7 ± 38.7 | 7.63 | −0.07 | 4.45 | 3.14 | 8.81 | -12.6 ± 1269.4 | 0.09 | 0.3 ± 1.8 | −0.15 | opioid addictive behavior by conditioned place preference, in words [8]: effective; patients discontinuing with poor tolerance to a side effect (dizziness) [9]: One

From patent US9925179B2, “Combination therapy for mental disorders” (priority 2014, dated 2018)
